Source: PubChem BioAssay (NCI)
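Growth conditions: 96-well plates. Treatment: test compound, 48 hours, 5 concentrations. Analysis: linear interpolation between bracketing concentrations; unreached endpoints set to highest concentration. GI50 is the concentration that inhibits growth by half. TGI: concentration producing complete growth inhibition.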

Legend:
Assay in all cases: NCI-60 cell line screen, 48 h
[1] = system: HOP-92 NSCLC
[2] = system: U251 CNS
[3] = system: ACHN renal
[4] = system: NCI-H23 lung
[5] = system: 786-0 renal
[6] = system: COLO 205 colon
[7] = system: SR leukemia
[8] = system: HL-60(TB) leukemia
[9] = system: OVCAR-3 ovarian
[10] = system: RXF 393 renal
[11] = system: SK-OV-3 ovarian
[12] = system: MCF7 breast
[13] = system: SF-295 CNS
[14] = system: OVCAR-8 ovarian
[15] = system: HCT-116 colon
[16] = system: NCI/ADR-RES ovarian
[17] = system: A549 NSCLC
[18] = system: SW-620 colon
[19] = system: OVCAR-5 ovarian
[20] = system: LOX IMVI melanoma
[21] = system: NCI-H522 lung
[22] = system: IGROV1 ovarian
[23] = system: SNB-75 CNS
[24] = system: UO-31 renal
[25] = system: SK-MEL-5 melanoma
[26] = system: UACC-257 melanoma
[27] = system: RPMI-8226 leukemia
[28] = system: HOP-62 NSCLC
[29] = system: MOLT-4 leukemia
[30] = system: NCI-H460 lung
[31] = system: K-562 leukemia
[32] = system: HS 578T breast
[33] = system: TK-10 renal
[34] = system: HCC-2998 colon
[35] = system: SNB-19 CNS
[36] = system: BT-549 breast
[37] = system: OVCAR-4 ovarian
[38] = system: MALME-3M melanoma
[39] = system: HT29 colon
[40] = system: SK-MEL-28 melanoma
[41] = system: SF-539 CNS
[42] = system: UACC-62 melanoma
[43] = system: NCI-H226 lung
[44] = system: A498 renal
[45] = system: T-47D breast
[46] = system: EKVX NSCLC
[47] = system: MDA-MB-231 breast
[48] = system: CCRF-CEM leukemia
[49] = system: MDA-MB-435
[50] = system: SN12C renal
[51] = system: CAKI-1 renal
[52] = system: DU-145 prostate
[53] = system: HCT-15 colon
[54] = system: KM12 colon
[55] = system: PC-3 prostate
[56] = system: M14 melanoma
[57] = system: SK-MEL-2 melanoma

## COc1cc(C(=O)/C=C/c2cccc(Nc3ccnc4cc(Cl)ccc34)c2)cc(OC)c1OC
[1]
  GI50: 1.47 µM
  TGI: 5.84 µM
[2]
  GI50: 0.911 µM
  TGI: 2.24 µM
[3]
  GI50: 1.24 µM
  TGI: 2.49 µM
[4]
  GI50: 1.67 µM
  TGI: 3.68 µM
[5]
  GI50: 0.564 µM
  TGI: 1.95 µM
[6]
  GI50: 1.34 µM
  TGI: 3.69 µM
[7]
  GI50: 0.324 µM
  TGI: 1.42 µM
[8]
  GI50: 1.82 µM
  TGI: 4.52 µM
[9]
  GI50: 0.389 µM
  TGI: 1.39 µM
[10]
  GI50: 1.08 µM
  TGI: 2.48 µM
[11]
  GI50: 1.94 µM
  TGI: 4.51 µM
[12]
  GI50: 0.609 µM
  TGI: 2.06 µM
[13]
  GI50: 1.42 µM
  TGI: 3.03 µM
[14]
  GI50: 0.524 µM
  TGI: 2.12 µM
[15]
  GI50: 0.347 µM
  TGI: 1.29 µM
[16]
  GI50: 0.409 µM
  TGI: 2.94 µM
[17]
  GI50: 1.48 µM
  TGI: 3.91 µM
[18]
  GI50: 0.445 µM
  TGI: 2.44 µM
[19]
  GI50: 1.7 µM
  TGI: 3.29 µM
[20]
  GI50: 0.373 µM
  TGI: 1.46 µM
[21]
  GI50: 0.594 µM
  TGI: 2.25 µM
[22]
  GI50: 1.32 µM
  TGI: 3.8 µM
[23]
  GI50: 1.31 µM
  TGI: 3.64 µM
[24]
  GI50: 0.566 µM
  TGI: 1.95 µM
[25]
  GI50: 1.38 µM
  TGI: 2.67 µM
[26]
  GI50: 1.43 µM
  TGI: 3.06 µM
[27]
  GI50: 0.312 µM
  TGI: 1.42 µM
[28]
  GI50: 0.676 µM
  TGI: 2.27 µM
[29]
  GI50: 1.79 µM
  TGI: 6.46 µM
[30]
  GI50: 1.91 µM
  TGI: 4.49 µM
[31]
  GI50: 0.403 µM
  TGI: 3.23 µM
[32]
  GI50: 2.49 µM
  TGI: 14.2 µM
[33]
  GI50: 1.45 µM
  TGI: 2.97 µM
[34]
  GI50: 1.72 µM
  TGI: 3.21 µM
[35]
  GI50: 1.18 µM
  TGI: 2.45 µM
[36]
  GI50: 1.23 µM
  TGI: 2.84 µM
[37]
  GI50: 1.26 µM
  TGI: 2.57 µM
[38]
  GI50: 1.46 µM
  TGI: 3.38 µM
[39]
  GI50: 0.323 µM
  TGI: 1.3 µM
[40]
  GI50: 1.51 µM
  TGI: 3.01 µM
[41]
  GI50: 1.36 µM
  TGI: 2.68 µM
[42]
  GI50: 1.03 µM
  TGI: 2.36 µM
[43]
  GI50: 1.27 µM
  TGI: 2.95 µM
[44]
  GI50: 1.54 µM
  TGI: 4.21 µM
[45]
  GI50: 1.22 µM
  TGI: 3.17 µM

## O=C(COc1ccc(/C=C2\Oc3ccccc3C2=O)cc1)Nc1nc2ccccc2s1
[46]
  GI50: 26.5 µM
  TGI: > 100 µM
[2]
  GI50: 6.35 µM
  TGI: > 100 µM
[3]
  GI50: 28.9 µM
  TGI: > 100 µM
[47]
  GI50: 4.7 µM
  TGI: 60.3 µM
[48]
  GI50: 0.17 µM
  TGI: 0.332 µM
[4]
  GI50: 18.8 µM
  TGI: > 100 µM
[49]
  GI50: 8.21 µM
  TGI: > 100 µM
[5]
  GI50: 5.26 µM
  TGI: 53.3 µM
[6]
  GI50: 32 µM
  TGI: > 89.8 µM
[7]
  GI50: 2.38 µM
  TGI: 8.57 µM
[8]
  GI50: 1.68 µM
  TGI: 3.51 µM
[9]
  GI50: 1.9 µM
  TGI: 4.78 µM
[50]
  GI50: 10.5 µM
  TGI: > 100 µM
[51]
  GI50: 1.79 µM
[11]
  GI50: 61.7 µM
  TGI: > 100 µM
[12]
  GI50: 35.6 µM
  TGI: > 100 µM
[13]
  GI50: 28.7 µM
  TGI: > 75.3 µM
[52]
  GI50: 5.59 µM
  TGI: > 100 µM
[53]
  GI50: 33.8 µM
  TGI: > 100 µM
[14]
  GI50: 0.321 µM
  TGI: > 100 µM
[15]
  GI50: 19.3 µM
  TGI: > 100 µM
[16]
  GI50: 2.92 µM
  TGI: > 100 µM
[17]
  GI50: 4.96 µM
  TGI: > 72.7 µM
[18]
  GI50: 24.2 µM
  TGI: > 100 µM
[19]
  GI50: 39.4 µM
  TGI: > 100 µM
[21]
  GI50: 0.207 µM
  TGI: 0.487 µM
[54]
  GI50: 2.09 µM
  TGI: > 100 µM
[23]
  GI50: 1.99 µM
  TGI: > 45.5 µM
[24]
  GI50: 13 µM
  TGI: > 57.6 µM
[55]
  GI50: 2.27 µM
  TGI: > 70.6 µM
[25]
  GI50: 29.7 µM
  TGI: > 100 µM
[26]
  GI50: 8.24 µM
  TGI: 45.2 µM
[56]
  GI50: 38.4 µM
  TGI: > 100 µM
[27]
  GI50: 2.79 µM
  TGI: 15.7 µM
[28]
  GI50: > 69.4 µM
  TGI: > 100 µM
[30]
  GI50: 43.8 µM
  TGI: > 100 µM
[57]
  GI50: 14.6 µM
  TGI: > 68.6 µM
[31]
  GI50: 16.7 µM
  TGI: > 100 µM
[32]
  GI50: 18.1 µM
  TGI: 96.4 µM
[33]
  GI50: > 84.8 µM
  TGI: > 100 µM
[34]
  GI50: 33.1 µM
  TGI: > 100 µM
[35]
  GI50: 41.4 µM
  TGI: > 100 µM
[36]
  GI50: 6.67 µM
  TGI: > 80.5 µM
[37]
  GI50: 21.2 µM
  TGI: > 100 µM
[38]
  GI50: 3.94 µM
  TGI: > 100 µM
[39]
  GI50: 23.6 µM
  TGI: > 100 µM
[40]
  GI50: 37.5 µM
  TGI: > 100 µM
[41]
  GI50: 3.16 µM
  TGI: > 100 µM
[42]
  GI50: 42 µM
  TGI: > 100 µM
[43]
  GI50: 23.3 µM
  TGI: > 95.5 µM
[44]
  GI50: 37.1 µM
  TGI: 94.5 µM
[45]
  GI50: 41.4 µM
  TGI: > 100 µM
